For test [1], the system named is midgut and anal gills of third-instar Ae. aegypti larvae. The test is described as follows: transmission electron microscopy analysis of midgut and anal gills. In kind it is in vivo, Aedes aegypti. The note with it: honokiol 6.5 mg/L or magnolol 25 mg/L (LC50), 24 h. The method, then: At 24 h post-treatment, the midgut and anal gills of the untreated and treated Ae. aegypti larvae were fixed in Karnovsky’s fixative (2% (v/v) glutaraldehyde and 2% (v/v) paraformaldehyde in 0.05 M sodium cacodylate buffer (pH 7.2)) at 4 °C in darkness for 2–4 h and were washed three times with the same buffer. The specimens were post-fixed with 1% (w/v) osmium tetroxide in the same buffer at 4 °C for 2 h and washed with DW three times. The post-fixed specimens were then dehydrated through a graded series of ethanol with increasing concentrations up to 100% for 15 min. The specimens were further treated with propylene oxide twice each for 15 min as a transitional fluid and embedded in Spurr’s resin[77]. Ultrathin sections (approximately 50 nm thickness) were cut with a UC6 ultramicrotome (Leica Microsystems, Wetzlar, Germany) and stained in 2% aqueous uranyl acetate for 7 min at room temperature as well as with Reynolds lead citrate[78] for 7 min. The sections were mounted on copper grids, and micrographs were obtained from a CM120 transmission electron microscope (Philips Electronics, Amsterdam, Netherlands) at 80 kV. Images were captured using a MegaView III digital camera (Olympus-SIS, Lakewood, CO, USA). Observations were taken of 12 larvae via TEM.

In test [2] the test system is midgut regions of third-instar Ae. aegypti larvae. The test is described as follows: histologic analysis by Carson's trichrome staining. Particulars: honokiol 6.5 mg/L or magnolol 25 mg/L (LC50), 24 h. Type of test: in vivo, Aedes aegypti. As to the method:
At 24 h post-treatment, Ae. aegypti larvae untreated and treated with honokiol or magnolol were immediately fixed in Bouin’s fluid[75] at 4 °C for 24 h. Larvae were then dehydrated in an ethanol-tetrahydrofuran-xylene series and embedded in Paraplast X-tra (Sigma-Aldrich). The embedded preparations of the larvae were sectioned at a 5 μm thickness using a Microm HM 340E rotary microtome (Thermo Scientific, Walldorf, Germany). The sections were dried at 40 °C overnight, subsequently deparaffinized with CitriSolv (Fisher Scientific, Fair Lawn, NJ, USA), and rehydrated with a series of ethanol in phosphate-buffered saline (PBS) solutions[30]. The rehydrated sections were stained in Weigert’s iron hematoxylin for 30 s, followed by Carson’s trichrome staining procedure. This staining protocol stained the columnar and goblet cells of the midgut blue and red, respectively. These sections were then dehydrated, cleared in xylene, and mounted in EMS Permount (Electron Microscopy Sciences, Hatfield, PA, USA). Images were observed and captured using a DMIL LED microscope (Leica Microsystems, Wetzlar, Germany) equipped with a Leica MC 170 HD. Observations were taken of 15 larvae under the microscope.

Test [3] has as its system third-instar larvae of insecticide-resistant Anopheles sinensis. Nature of the test: contact mortality bioassay, 24 h exposure. Type of test: in vivo. The note with it: Table 5, larvae resistant to deltamethrin and temephos, 24 h exposure.
Test [4] has as its system third-instar larvae of insecticide-susceptible Aedes albopictus. Nature of the test: contact mortality bioassay, 24 h exposure. Type of test: in vivo.
Test [5] deals with whole-body homogenate from third-instar Aedes aegypti larvae (adenylate cyclase activity). The test is described as follows: determination of cyclic AMP levels (octopamine-sensitive adenylate cyclase activity). In kind it is biochemical. The note with it: 100 μM; compared with control group / octopamine. As to the method: The method of Perumalsamy et al.[42] was used to assess the in vitro octopamine-sensitive adenylate cyclase activity of the test compounds. In brief, whole bodies of 75 Ae. aegypti larvae (106.2 mg) were homogenized in 500 µL of 2 mM Tris-maleate buffer (pH 7.4) containing 0.8 mM ethylene glycol tetraacetic acid (EGTA). The adenylate cyclase activity was determined using the cAMP Biotrak Enzymeimmunoassay system according to the manufacturer’s protocol. The assay was conducted in a total volume of 100 µL containing 80 mM Tris-maleate buffer, 5 mM theophylline, 2 mM MgSO4, 0.5 mM adenosine triphosphate (ATP), 0.2 mM EGTA, 50 µL of whole-body homogenate (equivalent to 4.12 µg protein), and 1 µL of the test compounds in Tris-maleate buffer containing 0.2% ethanol. After incubation at 20 °C for 5 min, the reaction was initiated by addition of ATP. Incubation was performed at 30 °C for 3 min in a shaking water bath. The reaction was stopped by boiling for 2 min, and then, the assay tube was cooled and centrifuged at 8,000 × g for 10 min. Fifty microliters of the supernatant were assayed for cAMP levels.
Polystyrene microplates (1 strip of 8 wells) coated with a goat anti-mouse polyclonal antibody were used. Fifty microliters of a mouse monoclonal antibody solution were added to each well except for the blank wells (or the nonspecific binding wells). The wells covered with the adhesive strip were incubated at 25 °C for 1 h in a shaking incubator (480 rpm). After washing with 400 µL of wash buffer four times, 50 μL of the two neolignan samples for cAMP determination and cAMP standard were added to wells. Control, blank (nonspecific binding), and zero standard wells were supplemented with 50 μL of a diluent RD5-55 buffer. […] The optical densities at 450 and 540 nm were determined using the microplate reader described above. The readings at 540 nm were subtracted from the readings at 450 nm. The cAMP concentrations are expressed as nmol/µg protein. The results are expressed as the means ± SEs of triplicate samples from three independent experiments.

Test [6] relates to larvae of four mosquito species (Cx. pipiens pallens, Ae. aegypti, Ae. albopictus, and An. sinensis). The test is described as follows: contact mortality bioassay, range over four mosquito species. In kind it is in vivo. The note with it: 24 h. The method, then: A contact mortality bioassay[25] was used to evaluate the toxicity of all compounds against third-instar larvae of the four mosquito species. Each test compound in methanol was suspended in DW with Triton X-100 (20 µL/L). Groups of 20 mosquito larvae were separately placed into paper cups (270 mL) containing each compound solution (250 mL). […] Negative controls consisted of a methanol–Triton X-100 solution in DW.
Treated and control (methanol–Triton X-100 solution only) larvae were maintained under the same conditions as those used for colony maintenance without providing food. Larval mortalities were determined 24 h post-treatment. […] All treatments were performed three times using 20 larvae per replicate.
The concentration of the test compounds required to produce 50% AChE inhibitory activity (IC50) was determined using the SAS 9.13 program (Cary: SAS Institute; 2014). Concentration-mortality data were subjected to probit analysis using the SAS 9.13 program. […] Statistical analyses were performed using the SAS 9.13 program. Multiple linear regression and correlation analysis were performed using the SPSS 24 program (Armonk: IBM Corp.; 2016).

≈ marks a conversion by molar mass, not a printed value.

With `C=CCc1ccc(O)c(-c2ccc(O)c(CC=C)c2)c1` [Honokiol, 2-(4-hydroxy-3-prop-2-enyl-phenyl)-4-prop-2-enyl-phenol], the “histopathological effects on anal gills (TEM)” value in test [1] is recorded as “cytoplasmic disruption with damaged anal gill cells”. Also, the “histopathological effects on midgut (TEM)” value in test [1] was “devastated cellular material and extruded masses in the cytoplasm”. The “histology of midgut region (Carson's staining)” value in test [2] was “indistinct damaged midgut epithelial layers”. The LC50 is 7.37 mg/L (≈ 27.7 µM) in test [3] (Anopheles sinensis, read-out: LC50 (mg/L) (95% CI)); 6.13 mg/L (≈ 23 µM) in test [4] (Aedes albopictus, Table 4, 24 h exposure, read-out: LC50 (mg/L) (95% CI)); 6.13 to 7.37 µg/mL (≈ 23 to 27.7 µM) in test [6]. The “LC90 (mg/L) (95% CI)” value in test [3] is 31.45 (22.90–56.82) mg/L; in test [4] (Table 4, 24 h exposure) it was 16.52 (13.74–21.90) mg/L. Besides, the “Slope ± SE” value in test [3] (probit slope) is given as 2.0 ± 0.35; in test [4] (probit slope, Table 4, 24 h exposure), 2.9 ± 0.52. Also, the “times less toxic than temephos” value in test [4] (from 24 h LC50 values) is given as 464 times. The cAMP levels entry in test [5] is reported as “significantly higher than that induced by the control group”.

`C=CCc1ccc(O)c(-c2cc(CC=C)ccc2O)c1` [Magnolol, magnolol]: in test [1], the “histopathological effects on anal gills (TEM)” value is “damaged outer membranes of thick cuticles, which led to internal cytoplasmic destruction” and the “histopathological effects on midgut (TEM)” value was “complete disappearance of nuclei as well as cytoplasmic contents”. Further, in test [2], the “histology of midgut region (Carson's staining)” value is “indistinct midgut epithelial layers and PMs”. Further, the cAMP levels entry in test [5] is recorded as “significantly higher than that induced by the control group”.

The record behind these values is PMC6344527, “Toxicity and possible mechanisms of action of honokiol from Magnolia denudata seeds against four mosquito species” (Scientific Reports, 2019).
